According to article PMC6273176, “In Silico Mining for Antimalarial Structure-Activity Knowledge and Discovery of Novel Antimalarial Curcuminoids” (Molecules, 2016):
Like-named read-outs stand apart in the source and are kept apart here.

Legend:
P. falciparum 3D7 strain = assay: Antiplasmodial activity, SYBR Green I assay on P. falciparum 3D7 cultures; type: cell-based, Plasmodium falciparum; conditions: for IC50: read-out: Plasmodium falciparum 3D7 Strain IC50 ± SD
Experimental: In vitro biological assays. Compounds were tested to establish a full dose-titration and determination of the IC50. […] Antiplasmodial activity. The P. falciparum 3D7 strain was maintained in O+ human erythrocytes in albumin RPMI-supplemented medium under continuous culture using the candle-jar method. The parasites were synchronized to the ring stage by repeated sorbitol treatment. A 2.5% (v/v) erythrocyte suspension with 1% parasitemia (number of parasites per 100 red blood cells) was incubated with the compounds to be tested, previously dissolved in DMSO. […] After 44 h of incubation at 37 °C, the plates were subjected to 3 freeze-thaw cycles to achieve complete hemolysis. […] The incorporation of SYBR Green I (Applied Biosystems) in parasite DNA was measured using the Master […]® (Eppendorf) according to the following program to increase the SYBR Green incorporation: 90 °C (1 min), decrease in temperature from 90 °C to 10 °C (during 5 min) with reading the fluorescence. Then, the IC50 was calculated by icestimator software.

[1] = Cytotoxicity assay on MRC-5 fibroblasts (resazurin); type: cell-based, human; conditions: human
Experimental: (§1) In vitro biological assays. Compounds were tested to establish a full dose-titration and determination of the IC50. […] The selectivity antiprotozoal potential on P. falciparum (3D7 strain) was assessed by simultaneous evaluation of cytotoxicity on a fibroblast (MRC-5) cell line.
(§2) Cytotoxicity assay. […] Cell viability was assessed fluorometrically after 4 h of the addition of resazurin. Fluorescence was measured (excitation 550 nm, emission 590 nm), and the results were expressed as % reduction in cell viability compared to untreated control. Tamoxifen is used as the reference control.

[2] = tested on: human fibroblast MRC-5 cell line; assay: as above; type: cell-based
Experimental: as §1, §2

[3] = Plasmodium falciparum, 3D7, 44 h
[4] = Plasmodium falciparum, 3D7, 44 h, 3D7 strain, ring-stage synchronized, 44 h incubation, SYBR Green I
[5] = MRC-5 SV2 cells, 72 h, resazurin, read-out: Cytotoxicity MRC-5 CC50

| SMILES | CC50 at 72 h [1] [nM] | SI CC50/IC50 [2] | cytotoxicity classification from CC50 [2] | IC50 (P. falciparum 3D7 strain; [4]) [nM] | further results |
| --- | --- | --- | --- | --- | --- |
| COc1cc(/C=C/C(=O)/C=C/c2ccc(O)c(OC)c2)ccc1O [Compound A18] | 1060 | <2.1 | rather cytotoxic | – | IC50 (P. falciparum 3D7 strain; [3]): > 500 nM |
| COc1ccc(/C=C/C(=O)/C=C/c2ccc(N)cc2)cc1 [Compound A15] | – | – | – | > 500 | – |
| O=C1C[C@@H](c2c(Cl)cccc2Cl)S[C@@H](c2c(Cl)cccc2Cl)C1 [Compound B4] | – | – | – | 60.4 ± 10.2 | – |
| O=C(/C=C/c1c(Cl)cccc1Cl)/C=C/c1c(Cl)cccc1Cl [Compound A12] | – | >266.5 | – | 240 ± 20.4 | CC50 at 72 h [1, 5]: > 64000 nM |
| CC/C(=C(\c1ccccc1)c1ccc(OCCN(C)C)cc1)c1ccccc1 [tamoxifen, reference compound] | – | – | – | – | CC50 at 72 h ([1]; MRC-5 SV2 fibroblast cells, MRC-5 SV2 cells, 72 h, resazurin, read-out: Cytotoxicity MRC-5 CC50): 9120 nM |
| O=C(/C=C/c1ccc(F)cc1)/C=C/c1ccc(F)cc1 [Compound A4] | – | – | – | 70.6 ± 9.7 | – |
| COc1ccc(/C=C/C(=O)/C=C/c2ccc3ccccc3c2)cc1 [Compound A3] | 32000 | 625 | rather not cytotoxic | 51.2 ± 10.7 | – |
| COc1cc(Br)c(OC)c([C@@H]2CC(=O)C[C@H](c3cc(OC)cc(Br)c3OC)S2)c1 [Compound B1] | > 64000 | >2112.2 | – | 30.3 ± 6.1 | – |
| Cc1ccc(/C=C/C(=O)/C=C/c2ccc(C)cc2)cc1 [Compound A17] | 32500 | <64.9 | rather not cytotoxic | > 500 | – |
| O=C(/C=C/c1ccccc1Cl)/C=C/c1ccccc1Cl [Compound A11] | 29400 | 162.3 | – | 181 ± 29.6 | – |
| O=C1C[C@H](c2ccccn2)[S+]([O-])[C@@H](c2ccccn2)C1 [Compound B3] | 8000 | 199.5 | – | 40.1 ± 7.3 | cytotoxicity classification from CC50 ([2]; MRC-5 cells, class in words): moderately cytotoxic |
| CN(C)c1ccc(/C=C/C(=O)/C=C/c2nccs2)cc1 [Compound A6] | > 64000 | – | – | 111 ± 12.5 | – |
| CN(C)c1ccc(/C=C/C(=O)/C=C/c2ccc(N(C)C)cc2)cc1 [Compound A19] | 62300 | <124.5 | rather not cytotoxic | > 500 | – |
| O=C1C[C@@H](c2ccccn2)S[C@@H](c2ccccn2)C1 [Compound B6] | – | <128 | – | > 500 | CC50 at 72 h [1, 5]: > 64000 nM |
| O=C(/C=C/c1ccccn1)/C=C/c1ccccn1 [Compound A1] | 1910 | 63.4 | – | 30.1 ± 8.5 | cytotoxicity classification from CC50 ([2]; MRC-5 cells, class in words): rather cytotoxic |
| CN(C)c1ccc([C@H]2CC(=O)C[C@H](c3ccc(N(C)C)cc3)S2)cc1 [Compound B12] | 4960 | <9.9 | moderately cytotoxic | > 500 | observed activity against 3D7 P. falciparum strain (in words) (P. falciparum 3D7 strain; in vitro 3D7 culture, active/inactive): inactive |
| O=C(/C=C/c1ccccc1)/C=C/c1ccncc1 [Compound A7] | 1990 | 16.5 | rather cytotoxic | 120 ± 17.3 | – |

| SMILES | CC50 at 72 h [1] [nM] | SI CC50/IC50 [2] | cytotoxicity classification from CC50 [2] | IC50 (P. falciparum 3D7 strain; [4]) [nM] | further results |
| --- | --- | --- | --- | --- | --- |
| O=C1C[C@H](c2ccccn2)S[C@@H](c2ccccn2)C1 [Compound B7] | – | <128 | – | > 500 | CC50 at 72 h [1, 5]: > 64000 nM |
| O=C(/C=C/c1ccccc1)/C=C/c1ncccn1 [Compound A14] | 1560 | <3.1 | rather cytotoxic | > 500 | – |
| O=C1C[C@H](c2ccccn2)S(=O)(=O)[C@@H](c2ccccn2)C1 [Compound B9] | 7890 | <15.8 | – | > 500 | cytotoxicity classification from CC50 ([2]; MRC-5 cells, class in words): moderately cytotoxic |
| O=C(/C=C/c1ccco1)/C=C/c1ccco1 [Compound A8] | – | >530.2 | – | 121 ± 10.5 | CC50 at 72 h [1, 5]: > 64000 nM |
| O=C1C[C@H](c2ccccn2)[S+]([O-])[C@H](c2ccccn2)C1 (stereo partly drawn) [Compound B5] | 8060 | 33.6 | – | – | IC50 (P. falciparum 3D7 strain; 3D7 strain, ring-stage synchronized, 44 h incubation, SYBR Green I): 240 ± 48.1 nM; cytotoxicity classification from CC50 ([2]; MRC-5 cells, class in words): moderately cytotoxic |
| O=C1C[C@H](c2ccccn2)S(=O)(=O)[C@H](c2ccccn2)C1 [Compound B11] | 7470 | <14.9 | – | > 500 | cytotoxicity classification from CC50 ([2]; MRC-5 cells, class in words): moderately cytotoxic |
| O=C(/C=C/c1ccc(Cl)cc1)/C=C/c1ccc(Cl)cc1 [Compound A9] | 42400 | 351.6 | rather not cytotoxic | 121 ± 12.4 | – |
| O=C(/C=C/c1ccncc1)/C=C/c1ccncc1 [Compound A13] | 1130 | <2.3 | rather cytotoxic | > 500 | – |
| CN(C)c1ccc(/C=C/C(=O)/C=C/c2ccc(F)cn2)cc1 [Compound A5] | 32200 | 292.4 | rather not cytotoxic | 110 ± 20.3 | – |
| O=C(/C=C/c1ccccc1)/C=C/c1ccccn1 [Compound A10] | 1530 | 9.5 | rather cytotoxic | 161 ± 20.5 | – |
| COc1ccc(O)c(/C=C/C(=O)/C=C/c2cc(OC)ccc2O)c1 [Compound A2] | 1880 | 62.2 | – | 30.2 ± 6.3 | cytotoxicity classification from CC50 ([2]; MRC-5 cells, class in words): rather cytotoxic |
| COc1ccc([C@H]2CC(=O)C[C@H](c3ccc(OC)cc3)S2(=O)=O)cc1 [Compound B10] | – | <128 | – | > 500 | CC50 at 72 h [1, 5]: > 64000 nM |
| CCN(CC)CCCC(C)Nc1ccnc2cc(Cl)ccc12 (stereo not drawn) [chloroquine, reference compound] | – | – | – | – | IC50 (P. falciparum 3D7 strain; [3]): 20.3 ± 5.2 nM |
| Cc1ccc(/C=C/C(=O)/C=C/c2ccc(C)o2)o1 [Compound A16] | 5360 | <10.7 | – | > 500 | cytotoxicity classification from CC50 ([2]; MRC-5 cells, class in words): rather cytotoxic |
| O=C1C[C@@H](c2c(Cl)cccc2Cl)S[C@H](c2c(Cl)cccc2Cl)C1 [Compound B8] | > 64000 | <128 | – | > 500 | – |
| COc1cc([C@@H]2CC(=O)C[C@@H](c3cc(OC)c(C)cc3OC)S2)c(OC)cc1C [Compound B2] | – | – | – | 30.6 ± 9.2 | – |
